Earlier results on two molecules are cited in patent US20110178105A1, “CLINICAL BENEFITS OF EICOSAPENTAENOIC ACID IN HUMANS” (E.I. DU PONT DE NEMOURS AND COMPANY, priority 2010, published 2011).

The conditions of series [1]: doses of approximately 1200 mg/day; cited from earlier work.
For series [2] the following is noted: rat; DHA TG supplementation; cited from earlier work.
On the set-up of series [3]: reduction of events / relative risk reduction in stroke / reduction of risk of subsequent CHD events / relative risk reduction of major cardiovascular events: concentration or dose not given beside the values. Conditions: cited from earlier work.
The mark [4] stands for this setting: EPA 1800 mg/day plus statin group (9,326), 4.6 years of follow-up.

Each structure is given as a SMILES string. Like-named read-outs stand apart in the source and are kept apart here.

Consider `CCC=CCC=CCC=CCC=CCC=CC/C=C\CCC(=O)O` [DHA, cis-4,7, 10, 13, 16, 19-docosahexaenoic acid, reference compound], for which the “lowering of triglyceride levels” value in series [1] is listed as “about 25%”. Further, the “plasma and erythrocyte DHA content, DHA TG versus DHA EE” value in series [2] is on record as “higher”.
For the molecule `CCC=CCC=CCC=CCC=CC/C=C\CCCC(=O)O` [EPA, cis-5,8, 11, 14, 17-eicosapentaenoic acid], in series [3] (1800 mg/day of EPA), the triglyceride lowering entry is reported as “no significant effect”. The “reduction of risk of subsequent CHD events” value in series [3] (1,050 subjects with prior myocardial infarction, EPA plus statin, p=0.033) is on record as 27%. Also, the “decrease in cardiovascular events” value in series [3] (>98% purified EPA-ethyl esters plus statin versus statin alone) is listed as 19%. The “major cardiovascular event rate” value in series [3] (setting [4]) is recorded as 2.8%. Further, in series [3] (setting [4]), the “major cardiovascular events observed” value is on record as 262 events. In addition, the “sudden death rates between the groups” value in series [3] (EPA plus statin versus statin-only) was “No significant differences”. In addition, the “relative risk reduction of major cardiovascular events” value in series [3] (EPA plus statin versus statin-only, p=0.011) is recorded as 19%. Besides, the “effects on lipid levels” value in series [3] (EPA plus statin) is “not associated with any significant effects”. Moreover, the reduction in stroke entry in series [3] (entire cohort, EPA plus statin) is “not associated with a significant reduction”. The stroke rate in series [3] (entire cohort, EPA plus statin) is given as 1.3%; in series [3] (subjects with prior stroke, EPA plus statin) it was 6.8%. The risk reduction in series [3] (impaired glucose tolerance (fasting glucose >110 mg/dl), EPA plus statin, p=0.048) is reported as 22%; in series [3] (normal glucose group, EPA plus statin, not significant), 18%; in series [3] (subjects without CHD, p 0.132 (not significant)), 18%. In addition, the reduction of events in series [3] (patients with a history of prior CHD, EPA plus statin versus statin-only, p=0.048) was 19%. The event rate in series [3] (patients with a history of prior CHD, EPA plus statin) is listed as 8.7%; in series [3] (subjects without CHD, EPA plus statin), 1.4%. For the same molecule, in series [3] (patients with a history of prior CHD), the “number needed to treat” value was 49. The “rate of subsequent CHD events” value in series [3] (subjects with prior myocardial infarction, EPA plus statin) is on record as 15.0%. Moreover, the “number needed to treat to prevent one event” value in series [3] (subjects with prior myocardial infarction) was 19. In addition, in series [3] (subjects with prior stroke, EPA plus statin, p<0.05), the “relative risk reduction in stroke” value is reported as 20%. Also, the “reduction of CHD events” value in series [3] (triglyceride >150 mg/dl and HDL cholesterol <40 mg/dl, EPA plus statin, p=0.043) is recorded as 53%.
